{"source": "patent US20230085307A1", "about": "“PYRIDAZINONE COMPOUND AND HERBICIDE” (NISSAN CHEMICAL CORPORATION, priority 2019, published 2023)", "key": {"false cleavers [1]": {"tested_on": "false cleavers", "test": "Test Example 4: herbicidal effect by soil treatment (Table 19, symbol Q)", "type": "in vivo, false cleavers (Galium spurium)", "in_short": "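Pre-emergence style soil spray: seeds under ~1.5 cm sterilized diluvial soil received a uniform coat of emulsion diluted to the predetermined herbicide amount. Greenhouse 25–30° C; readout at week three on previously defined criteria.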"}, "false cleavers [2]": {"tested_on": "false cleavers", "test": "Test Example 5: herbicidal effect by foliage application, plastic box (Table 20, symbol Q)", "type": "in vivo, false cleavers (Galium spurium)", "conditions": "foliage application; for herbicidal effect grade, Q: false cleavers / Q: false cleavers, herbicidal effect: three weeks after application; for Q: false cleavers, herbicidal effect / Q: false cleavers, herbicidal effect (criteria 0-5): AAH 320 g/ha; for effect on false cleavers (Q): 3 weeks after application; for herbicidal effect on Q: false cleavers / Q: false cleavers, herbicidal effect (criteria 0-5): evaluated three weeks after application", "in_short": "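Plants were sown into sterilized diluvial soil under about 1.5 cm cover and kept in a greenhouse at 25° C. to 30° C. Fourteen days on, foliage received an even spray of the diluted emulsion. Herbicidal or crop effect was judged three weeks afterwards.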"}, "[3]": {"conditions": "amount of applied herbicide 320 g/ha"}}}
{"molecule": "C#CC(C)Oc1ccc(-c2sc3ccccc3c2-c2c(O)c(C)nn(C)c2=O)cc1", "note": "(racemic) [1-217]", "values": [{"measurement": "Q: false cleavers, herbicidal effect rating", "setting": "false cleavers [1]; AAH 320 g/ha", "value": "3 (Herbicidal rate of 40% or more and less than 70%)"}]}
{"molecule": "C#CC(C)Oc1ccc(-c2sc3ccccc3c2-c2c(OCOCCOC)c(C)nn(C)c2=O)cc1", "note": "(racemic) [1-218]", "values": [{"measurement": "Q: false cleavers, herbicidal effect rating", "setting": "false cleavers [1]; AAH 187 g/ha", "value": "0 (Herbicidal rate of 5% or less (almost no effect))"}]}
{"molecule": "CCCOc1ccccc1-c1sc2ccccc2c1-c1c(O)c(C)nn(C)c1=O", "note": "[1-015]", "values": [{"measurement": "herbicidal effect rating, Q: false cleavers", "setting": "false cleavers [1]; [3]", "value": "3 (Herbicidal rate of 40% or more and less than 70%)"}, {"measurement": "herbicidal effect grade, Q: false cleavers", "setting": "false cleavers [2]; 320 g/ha", "value": "5 (Herbicidal rate of 90% or more (almost completely withered))"}]}
{"molecule": "CCCCCOc1ccc(-c2sc3ccccc3c2-c2c(O)c(C)nn(C)c2=O)cc1", "note": "[1-026]", "values": [{"measurement": "herbicidal effect rating, Q: false cleavers", "setting": "false cleavers [1]; [3]", "value": "0 (Herbicidal rate of 5% or less (almost no effect))"}, {"measurement": "herbicidal effect grade, Q: false cleavers", "setting": "false cleavers [2]; 320 g/ha", "value": "4 (Herbicidal rate of 70% or more and less than 90%)"}]}
{"molecule": "Cc1nn(C)c(=O)c(-c2c(-c3ccccc3OC(F)(F)F)sc3ccccc23)c1O", "note": "[1-030]", "values": [{"measurement": "herbicidal effect rating, Q: false cleavers", "setting": "false cleavers [1]; [3]", "value": "5 (Herbicidal rate of 90% or more (almost completely withered))"}, {"measurement": "herbicidal effect grade, Q: false cleavers", "setting": "false cleavers [2]; 320 g/ha", "value": "5 (Herbicidal rate of 90% or more (almost completely withered))"}]}
{"molecule": "CC(=O)c1ccc(-c2sc3ccccc3c2-c2c(O)c(C)nn(C)c2=O)cc1", "note": "[1-041]", "values": [{"measurement": "herbicidal effect rating, Q: false cleavers", "setting": "false cleavers [1]; [3]", "value": "5 (Herbicidal rate of 90% or more (almost completely withered))"}, {"measurement": "herbicidal effect grade, Q: false cleavers", "setting": "false cleavers [2]; 320 g/ha", "value": "4 (Herbicidal rate of 70% or more and less than 90%)"}]}
{"molecule": "CCCC(=O)Oc1c(C)nn(C)c(=O)c1-c1c(-c2ccc(C(C)=NOC)cc2)sc2ccccc12", "note": "[1-044]", "values": [{"measurement": "herbicidal effect rating, Q: false cleavers", "setting": "false cleavers [1]; [3]", "value": "4 (Herbicidal rate of 70% or more and less than 90%)"}, {"measurement": "herbicidal effect grade, Q: false cleavers", "setting": "false cleavers [2]; 320 g/ha", "value": "3 (Herbicidal rate of 40% or more and less than 70%)"}]}
{"molecule": "Cc1cc(-c2sc3ccccc3c2-c2c(O)c(C)nn(C)c2=O)ccc1F", "note": "[1-051]", "values": [{"measurement": "herbicidal effect rating, Q: false cleavers", "setting": "false cleavers [1]; [3]", "value": "0 (Herbicidal rate of 5% or less (almost no effect))"}, {"measurement": "herbicidal effect grade, Q: false cleavers", "setting": "false cleavers [2]; 320 g/ha", "value": "0 (Herbicidal rate of 5% or less (almost no effect))"}]}
{"molecule": "CCOc1cc(F)ccc1-c1sc2ccccc2c1-c1c(O)c(C)nn(C)c1=O", "note": "[1-061]", "values": [{"measurement": "herbicidal effect rating, Q: false cleavers", "setting": "false cleavers [1]; [3]", "value": "4 (Herbicidal rate of 70% or more and less than 90%)"}, {"measurement": "herbicidal effect grade, Q: false cleavers", "setting": "false cleavers [2]; 320 g/ha", "value": "5 (Herbicidal rate of 90% or more (almost completely withered))"}]}
{"molecule": "COC(=O)Oc1c(C)nn(C)c(=O)c1-c1c(-c2ccc3c(c2)OCCO3)sc2ccccc12", "note": "[1-091]", "values": [{"measurement": "herbicidal effect rating, Q: false cleavers", "setting": "false cleavers [1]; [3]", "value": "3 (Herbicidal rate of 40% or more and less than 70%)"}, {"measurement": "Q: false cleavers, herbicidal effect", "setting": "false cleavers [2]", "value": "4 (Herbicidal rate of 70% or more and less than 90%)"}]}
{"molecule": "Cc1nn(C)c(=O)c(-c2c(-c3ccc4c(c3)OCCO4)sc3ccccc23)c1OC(=O)SC(C)(C)C", "note": "[1-092]", "values": [{"measurement": "herbicidal effect rating, Q: false cleavers", "setting": "false cleavers [1]; [3]", "value": "0 (Herbicidal rate of 5% or less (almost no effect))"}, {"measurement": "Q: false cleavers, herbicidal effect", "setting": "false cleavers [2]", "value": "0 (Herbicidal rate of 5% or less (almost no effect))"}]}
{"molecule": "Cc1nn(C)c(=O)c(-c2c(-c3ccc4c(c3)CCO4)sc3ccccc23)c1O", "note": "[1-101]", "values": [{"measurement": "herbicidal effect rating, Q: false cleavers", "setting": "false cleavers [1]; [3]", "value": "3 (Herbicidal rate of 40% or more and less than 70%)"}, {"measurement": "Q: false cleavers, herbicidal effect", "setting": "false cleavers [2]", "value": "3 (Herbicidal rate of 40% or more and less than 70%)"}]}
{"molecule": "CCCC(=O)Oc1c(C)nn(C)c(=O)c1-c1c(-c2ccc3c(c2)CCO3)sc2ccccc12", "note": "[1-102]", "values": [{"measurement": "herbicidal effect rating, Q: false cleavers", "setting": "false cleavers [1]; [3]", "value": "0 (Herbicidal rate of 5% or less (almost no effect))"}, {"measurement": "Q: false cleavers, herbicidal effect", "setting": "false cleavers [2]", "value": "1 (Herbicidal rate of 5% or more and less than 20%)"}]}
{"molecule": "COCc1ccc(-c2sc3ccccc3c2-c2c(O)c(C)nn(C)c2=O)cc1", "note": "[1-131]", "values": [{"measurement": "Q: false cleavers, herbicidal effect rating", "setting": "false cleavers [1]; AAH 320 g/ha", "value": "0 (Herbicidal rate of 5% or less (almost no effect))"}, {"measurement": "Q: false cleavers, herbicidal effect", "setting": "false cleavers [2]", "value": "4 (Herbicidal rate of 70% or more and less than 90%)"}]}
{"molecule": "Cc1nn(C)c(=O)c(-c2c(-c3ccc(OCCBr)cc3)sc3ccccc23)c1O", "note": "[1-204]", "values": [{"measurement": "Q: false cleavers, herbicidal effect rating", "setting": "false cleavers [1]; AAH 320 g/ha", "value": "0 (Herbicidal rate of 5% or less (almost no effect))"}]}
{"molecule": "C=C(C)COc1ccc(-c2sc3ccccc3c2-c2c(O)c(C)nn(C)c2=O)cc1", "note": "[1-208]", "values": [{"measurement": "Q: false cleavers, herbicidal effect rating", "setting": "false cleavers [1]; AAH 320 g/ha", "value": "0 (Herbicidal rate of 5% or less (almost no effect))"}]}
{"molecule": "Cc1nn(C)c(=O)c(-c2c(-c3ccc(OCCC4OCCO4)cc3)sc3ccccc23)c1O", "note": "[1-223]", "values": [{"measurement": "Q: false cleavers, herbicidal effect rating", "setting": "false cleavers [1]; AAH 246 g/ha", "value": "0 (Herbicidal rate of 5% or less (almost no effect))"}]}
{"molecule": "COc1ccc(-c2sc3ccc(F)cc3c2-c2c(O)c(C)nn(C)c2=O)cc1", "note": "[2-026]", "values": [{"measurement": "effect on false cleavers (Q)", "setting": "false cleavers [2]; 320 g/ha", "value": "4 (Herbicidal rate of 70% or more and less than 90%)"}]}
{"molecule": "CCCC(=O)Oc1c(C)nn(C)c(=O)c1-c1c(-c2ccccc2OCC)sc2ccc(F)cc12", "note": "[2-029]", "values": [{"measurement": "herbicidal effect rating, Q: false cleavers", "setting": "false cleavers [1]; 266 g/ha", "value": "3 (Herbicidal rate of 40% or more and less than 70%)"}, {"measurement": "effect on false cleavers (Q)", "setting": "false cleavers [2]; 266 g/ha", "value": "4 (Herbicidal rate of 70% or more and less than 90%)"}]}
{"molecule": "CCCOc1ccc(-c2sc3ccc(F)cc3c2-c2c(O)c(C)nn(C)c2=O)cc1", "note": "[2-032]", "values": [{"measurement": "herbicidal effect rating, Q: false cleavers", "setting": "false cleavers [1]; 320 g/ha", "value": "0 (Herbicidal rate of 5% or less (almost no effect))"}]}
{"molecule": "Cc1nn(C)c(=O)c(-c2c(-c3ccc(OC(C)C)cc3)sc3ccc(F)cc23)c1O", "note": "[2-034]", "values": [{"measurement": "herbicidal effect rating, Q: false cleavers", "setting": "false cleavers [1]; 320 g/ha", "value": "0 (Herbicidal rate of 5% or less (almost no effect))"}, {"measurement": "effect on false cleavers (Q)", "setting": "false cleavers [2]; 320 g/ha", "value": "4 (Herbicidal rate of 70% or more and less than 90%)"}]}
{"molecule": "CCCCOc1ccc(-c2sc3ccc(F)cc3c2-c2c(O)c(C)nn(C)c2=O)cc1", "note": "[2-036]", "values": [{"measurement": "effect on false cleavers (Q)", "setting": "false cleavers [2]; 320 g/ha", "value": "4 (Herbicidal rate of 70% or more and less than 90%)"}]}
{"molecule": "CON=C(C)c1ccc(-c2sc3ccc(F)cc3c2-c2c(O)c(C)nn(C)c2=O)cc1", "note": "[2-079]", "values": [{"measurement": "herbicidal effect on Q: false cleavers", "setting": "false cleavers [2]; 320 g/ha", "value": "5 (Herbicidal rate of 90% or more (almost completely withered))"}]}
{"molecule": "CCOc1cc(F)ccc1-c1sc2ccc(F)cc2c1-c1c(O)c(C)nn(C)c1=O", "note": "[2-084]", "values": [{"measurement": "herbicidal effect on Q: false cleavers", "setting": "false cleavers [2]; 320 g/ha", "value": "5 (Herbicidal rate of 90% or more (almost completely withered))"}]}
{"molecule": "CCCC(=O)Oc1c(C)nn(C)c(=O)c1-c1c(-c2ccc(F)cc2OCC)sc2ccc(F)cc12", "note": "[2-085]", "values": [{"measurement": "herbicidal effect rating, Q: false cleavers", "setting": "false cleavers [1]; 320 g/ha", "value": "4 (Herbicidal rate of 70% or more and less than 90%)"}, {"measurement": "herbicidal effect on Q: false cleavers", "setting": "false cleavers [2]; 320 g/ha", "value": "5 (Herbicidal rate of 90% or more (almost completely withered))"}]}
{"molecule": "Cc1nn(C)c(=O)c(-c2c(-c3ccc4c(c3)OCCO4)sc3ccc(F)cc23)c1O", "note": "[2-092]", "values": [{"measurement": "herbicidal effect on Q: false cleavers", "setting": "false cleavers [2]; 320 g/ha", "value": "4 (Herbicidal rate of 70% or more and less than 90%)"}]}
{"molecule": "Cc1nn(C)c(=O)c(-c2c(-c3ccc(Br)cc3)sc3ccc(F)cc23)c1O", "note": "[2-205]", "values": [{"measurement": "Q: false cleavers, herbicidal effect rating", "setting": "false cleavers [1]; [3]", "value": "1 (Herbicidal rate of 5% or more and less than 20%)"}]}
{"molecule": "COCC(=O)Oc1c(C)nn(C)c(=O)c1-c1c(-c2ccc(OC(F)F)cc2)sc2ccc(F)cc12", "note": "[2-283]", "values": [{"measurement": "herbicidal effect on Q: false cleavers", "setting": "false cleavers [1]; [3]", "value": "0 (Herbicidal rate of 5% or less (almost no effect))"}, {"measurement": "Q: false cleavers, herbicidal effect (criteria 0-5)", "setting": "false cleavers [2]", "value": "5 (Herbicidal rate of 90% or more (almost completely withered))"}]}
{"molecule": "Cc1nn(C)c(=O)c(-c2c(-c3ccc(OC(F)F)cc3)sc3ccc(F)cc23)c1OC(=O)OCCCl", "note": "[2-293]", "values": [{"measurement": "Q: false cleavers, herbicidal effect (criteria 0-5)", "setting": "false cleavers [2]", "value": "5 (Herbicidal rate of 90% or more (almost completely withered))"}]}
{"molecule": "Cc1nn(C)c(=O)c(-c2c(-c3ccc(OC(F)F)cc3)sc3ccc(F)cc23)c1OC(=S)Sc1ccccc1", "note": "[2-298]", "values": [{"measurement": "herbicidal effect on Q: false cleavers", "setting": "false cleavers [1]; [3]", "value": "0 (Herbicidal rate of 5% or less (almost no effect))"}]}
{"molecule": "Cc1nn(C)c(=O)c(-c2c(-c3ccc(O)cc3)sc3ccc(F)cc23)c1O", "note": "[2-337]", "values": [{"measurement": "herbicidal effect on Q: false cleavers", "setting": "false cleavers [1]; [3]", "value": "0 (Herbicidal rate of 5% or less (almost no effect))"}]}
{"molecule": "Cc1nn(C)c(=O)c(-c2c(-c3ccc([N+](=O)[O-])cc3)sc3ccc(F)cc23)c1O", "note": "[2-341]", "values": [{"measurement": "herbicidal effect on Q: false cleavers", "setting": "false cleavers [1]; [3]", "value": "0 (Herbicidal rate of 5% or less (almost no effect))"}]}
